Patent US10745382B2 (BRISTOL-MYERS SQUIBB COMPANY, priority 2015, dated 2020)

These compounds were tested against T1, PD-1/PD-L1 (Homo sapiens, UniProt Q9NZQ7) (assay: PD-1/PD-L1 Homogenous Time-Resolved Fluorescence (HTRF) binding assay). Conditions: PD-L1-His 10 nM, PD-1-Ig 20 nM; numeric IC50; read-out: Range or IC50.
T1 construct: made in house; host or cells: HEK293T
T1 sequence (Q9NZQ7 with tags, fused parts or gaps): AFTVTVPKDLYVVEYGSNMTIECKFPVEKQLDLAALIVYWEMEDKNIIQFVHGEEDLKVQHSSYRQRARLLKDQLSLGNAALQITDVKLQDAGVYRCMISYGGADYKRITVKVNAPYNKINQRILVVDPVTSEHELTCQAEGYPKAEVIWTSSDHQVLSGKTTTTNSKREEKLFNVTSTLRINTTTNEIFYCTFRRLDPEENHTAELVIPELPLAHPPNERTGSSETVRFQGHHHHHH
Procedure, shortened: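 Additional pairs run were PD-1-Ig with PD-L2-His (20 & 5 nM) and CD80-His with PD-L1-Ig (100 & 10 nM), all human proteins. Buffer: dPBS plus 0.1% BSA, 0.05% Tween-20; time-resolved FRET read-out via 1 nM Eu-cryptate anti-Ig and 20 nM APC anti-His, final concentrations.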
Work on `Cc1c(COc2cc(OCc3cncc(C#N)c3)c(C=O)cc2Cl)cccc1-c1cccc(OCCCN2CC[C@@H](O)C2)c1Cl` [Example 1509, (R)-5-((4-chloro-5-((2′-chloro-3′-(3-(3-hydroxypyrrolidin-1-yl)propoxy)-2-methyl-[1,1′-biphenyl]-3-yl)methoxy)-2-formylphenoxy)methyl)nicotinonitrile] yielded an IC50 of 12 nM. `CCN(CC)C(=O)c1cccc(-c2cccc(COc3cc(OCc4cncc(C#N)c4)c(CN4CCCC[C@H]4C(=O)O)cc3Cl)c2C)c1C` [Example 4040, (S)-1-(5-chloro-2-((5-cyanopyridin-3-yl)methoxy)-4-((3′-(diethylcarbamoyl)-2,2′-dimethyl-[1,1′-biphenyl]-3-yl)methoxy)benzyl)piperidine-2-carboxylic Acid] gave an IC50 of 92 nM.

Same assay, conditions: PD-L1-His 10 nM, PD-1-Ig 20 nM; value given as range class; read-out: Range or IC50
`COC(=O)C1(C)CCCCN1Cc1cc(Cl)c(OCc2cccc(-c3cccc(OCCCN4CC[C@@H](O)C4)c3C)c2C)cc1OCc1cncc(C#N)c1` (stereo partly drawn) [Example 3069, methyl 1-(5-chloro-2-((5-cyanopyridin-3-yl)methoxy)-4-((3′-(3-((R)-3-hydroxypyrrolidin-1-yl)propoxy)-2,2′-dimethyl-[1,1′-biphenyl]-3-yl)methoxy)benzyl)-2-methylpiperidine-2-carboxylate] was tested, and the IC50 was 0.21 to 10 nM. `CCNC(=O)c1cccc(-c2cccc(COc3cc(OCc4cc(F)cc(F)c4)c(CN4CCCC[C@H]4C(=O)O)cc3Cl)c2C)c1C` [Example 4017, (S)-1-(5-chloro-2-((3,5-difluorobenzyl)oxy)-4-((3′-(ethylcarbamoyl)-2,2′-dimethyl-[1,1′-biphenyl]-3-yl)methoxy)benzyl)piperidine-2-carboxylic Acid] was tested, and the IC50 was 100 to 2000 nM. Compound `Cc1c(COc2cc(OCc3cncc(C#N)c3)c(CN3CCC[C@H]3C(=O)O)cc2Cl)cccc1-c1cccc(C(=O)N2CCOCC2)c1C` [Example 4049, (5-chloro-2-((5-cyanopyridin-3-yl)methoxy)-4-((2,2′-dimethyl-3′-(morpholine-4-carbonyl)-[1,1′-biphenyl]-3-yl)methoxy)benzyl)-L-proline] has an IC50 of 100 to 2000 nM. Work on `Cc1c(COc2cc(OCc3cncc(C#N)c3)c(CN[C@@](C)(CO)C(=O)O)cc2Cl)cccc1-c1cccc(OCCCN2CCC(O)(CC(=O)O)C2)c1C` (stereo partly drawn) [Example 1517, (2S)-2-((4-((3′-(3-(3-(carboxymethyl)-3-hydroxypyrrolidin-1-yl)propoxy)-2,2′-dimethyl-[1,1′-biphenyl]-3-yl)methoxy)-5-chloro-2-((5-cyanopyridin-3-yl)methoxy)benzyl)amino)-3-hydroxy-2-methylpropanoic acid] yielded an IC50 of 0.21 to 10 nM. In the case of `CCOC(=O)C1(CO)CCN(CCCOc2cccc(-c3cccc(COc4cc(OCc5cncc(S(C)(=O)=O)c5)c(CN[C@](C)(CO)C(=O)O)cc4Cl)c3C)c2C)C1` (stereo partly drawn) [Example 1044, (2R)-2-((5-chloro-4-((3′-(3-(3-(ethoxycarbonyl)-3-(hydroxymethyl)pyrrolidin-1-yl)propoxy)-2,2′-dimethyl-[1,1′-biphenyl]-3-yl)methoxy)-2-((5-(methylsulfonyl)pyridin-3-yl)methoxy)benzyl)amino)-3-hydroxy-2-methylpropanoic Acid], the IC50 is reported as 0.21 to 10 nM. With `Cc1c(COc2cc(OCc3cncc(C#N)c3)c(CN3CCCC[C@H]3C(=O)O)cc2Cl)cccc1-c1cccc(OCCCN(CCO)Cc2ccccc2)c1C` [Example 2236, (2S)-1-(4-((3′-(3-(benzyl(2-hydroxyethyl)amino)propoxy)-2,2′-dimethylbiphenyl-3-yl)methoxy)-5-chloro-2-((5-cyanopyridin-3-yl)methoxy)benzyl)piperidine-2-carboxylic Acid] the IC50 was 0.21 to 10 nM. Compound `Cc1c(COc2cc(OCc3cncc(C#N)c3)c(CN3CCCC[C@H]3C(=O)O)cc2Cl)cccc1-c1cccc(OCCCNCCc2ccccn2)c1C` [Example 2225, (2S)-1-(5-chloro-2-((5-cyanopyridin-3-yl)methoxy)-4-((2,2′-dimethyl-3′-(3-(2-(pyridin-2-yl)ethylamino)propoxy)biphenyl-3-yl)methoxy)benzyl)piperidine-2-carboxylic Acid] has an IC50 of 0.21 to 10 nM. `Cc1c(COc2cc(OCc3cncc(C#N)c3)c(CO)cc2Cl)cccc1-c1cccc(OCCCN2CCC[C@H](C(=O)O)C2)c1Cl` [Example 2009, (S)-1-(3-((2-chloro-3′-((2-chloro-5-((5-cyanopyridin-3-yl)methoxy)-4-(hydroxymethyl)phenoxy)methyl)-2′-methyl-[1,1′-biphenyl]-3-yl)oxy)propyl)piperidine-3-carboxylic Acid] was tested, and the IC50 was 10 to 100 nM. Compound `Cc1c(COCCN2CC[C@@H](O)C2)cccc1-c1cccc(COc2cc(OCc3cncc(C#N)c3)c(CN(C)C(C)(CO)CO)cc2Cl)c1C` [Example 4128, (R)-5-((4-chloro-2-(((1,3-dihydroxy-2-methylpropan-2-yl)(methyl)amino)methyl)-5-((3′-((2-(3-hydroxypyrrolidin-1-yl)ethoxy)methyl)-2,2′-dimethyl-[1,1′-biphenyl]-3-yl)methoxy)phenoxy)methyl)nicotinonitrile] has an IC50 of 0.21 to 10 nM. `CC(=O)N[C@H]1CCN(CCCOc2cccc(-c3cccc(COc4cc(OCc5cncc(C#N)c5)c(CN[C@](C)(CO)C(=O)O)cc4Cl)c3C)c2Cl)C1` [Example 2071, (R)-2-((4-((3′-(3-((S)-3-acetamidopyrrolidin-1-yl)propoxy)-2′-chloro-2-methyl-[1,1′-biphenyl]-3-yl)methoxy)-5-chloro-2-((5-cyanopyridin-3-yl)methoxy)benzyl)amino)-3-hydroxy-2-methylpropanoic Acid] gave an IC50 of 0.21 to 10 nM. `Cc1cc(OCCCCN2CC[C@@H](O)C2)ccc1-c1cccc(COc2cc(OCc3cncc(C#N)c3)c(CN3CCCC[C@H]3C(=O)O)cc2Cl)c1C` [Example 1093, (S)-1-(5-chloro-2-((5-cyanopyridin-3-yl)methoxy)-4-((4′-(4-((R)-3-hydroxypyrrolidin-1-yl)butoxy)-2,2′-dimethyl-[1,1′-biphenyl]-3-yl)methoxy)benzyl)piperidine-2-carboxylic Acid] was tested, and the IC50 was 0.21 to 10 nM. For `CCOC(=O)CC1(O)CCN(CCC2COc3ccc(-c4cccc(COc5cc(OCc6cncc(S(C)(=O)=O)c6)c(CN6CCCC[C@H]6C(=O)OC)cc5Cl)c4C)cc3O2)C1` (mixture of isomers) [Example 1527, (2S)-methyl 1-(5-chloro-4-((3-(3-(2-(3-(2-ethoxy-2-oxoethyl)-3-hydroxypyrrolidin-1-yl)ethyl)-2,3-dihydrobenzo[b][1,4]dioxin-6-yl)-2-methylbenzyl)oxy)-2-((5-(methylsulfonyl)pyridin-3-yl)methoxy)benzyl)piperidine-2-carboxylate], the IC50 was 10 to 100 nM. `Cc1c(COc2cc(OCc3cncc(C#N)c3)c(CNC(C)(CO)CO)cc2Cl)cccc1-c1cccc(OCCCN2CCC[C@@H](CO)C2)c1C` [Example 2289, (R)-5-((4-chloro-2-(((1,3-dihydroxy-2-methylpropan-2-yl)amino)methyl)-5-((3′-(3-(3-(hydroxymethyl)piperidin-1-yl)propoxy)-2,2′-dimethyl-[1,1′-biphenyl]-3-yl)methoxy)phenoxy)methyl)nicotinonitrile] showed an IC50 of 0.21 to 10 nM. In the case of `Cc1c(COc2cc(OCc3cncc(C(N)=O)c3)c(CN3CCCC[C@H]3C(=O)O)cc2Cl)cccc1-c1cccc(OCCCN2CCC(CO)(C(=O)O)CC2)c1C` [Example 1111, (S)-1-(2-((5-carbamoylpyridin-3-yl)methoxy)-4-((3′-(3-(4-carboxy-4-(hydroxymethyl)piperidin-1-yl)propoxy)-2,2′-dimethyl-[1,1′-biphenyl]-3-yl)methoxy)-5-chlorobenzyl)piperidine-2-carboxylic Acid], the IC50 is reported as 0.21 to 10 nM. `Cc1c(COc2cc(OCc3cncc(C#N)c3)c(CN3CCCC[C@H]3C(=O)O)cc2Cl)cccc1-c1cccc(O[C@H](C)CCN2CC[C@@H](O)C2)c1C` [Example 1526, (S)-1-(5-chloro-2-((5-cyanopyridin-3-yl)methoxy)-4-((3′-(((R)-4-((R)-3-hydroxypyrrolidin-1-yl)butan-2-yl)oxy)-2,2′-dimethyl-[1,1′-biphenyl]-3-yl)methoxy)benzyl)piperidine-2-carboxylic acid] was tested, and the IC50 was 0.21 to 10 nM. In the case of `Cc1c(COc2cc(OCc3cncc(C#N)c3)c(CN3CCCC[C@H]3C(=O)O)cc2Cl)cccc1-c1cccc(C(=O)N2CCOCC2)c1C` [Example 4048, (S)-1-(5-chloro-2-((5-cyanopyridin-3-yl)methoxy)-4-((2,2′-dimethyl-3′-(morpholine-4-carbonyl)-[1,1′-biphenyl]-3-yl)methoxy)benzyl)piperidine-2-carboxylic Acid], the IC50 is reported as 100 to 2000 nM. With `Cc1cccc(C)c1COc1cc(OCc2cccc(-c3cccc(OCCCN4CC[C@@H](O)C4)c3C)c2C)c(Cl)cc1CNC(C)(CO)CO` [Example 4514, (R)-2-((5-chloro-2-((2,6-dimethylbenzyl)oxy)-4-((3′-(3-(3-hydroxypyrrolidin-1-yl)propoxy)-2,2′-dimethyl-[1,1′-biphenyl]-3-yl)methoxy)benzyl)amino)-2-methylpropane-1,3-diol] the IC50 was 100 to 2000 nM. For `Cc1c(OCCCN2CC[C@@H](O)C2)cccc1-c1cccc(COc2cc(OCC3CC3(F)F)c(CNC(CO)CO)cc2Cl)c1Cl` (stereo partly drawn) [Example 2320, 2-((5-chloro-4-((2-chloro-3′-(3-((R)-3-hydroxypyrrolidin-1-yl)propoxy)-2′-methyl-[1,1′-biphenyl]-3-yl)methoxy)-2-((2,2-difluorocyclopropyl)methoxy)benzyl)amino)propane-1,3-diol], the IC50 was 0.21 to 10 nM. `Cc1c(COc2cc(OCc3cncc(C#N)c3)c(CN3CCCC[C@H]3C(=O)O)cc2Cl)cccc1-c1cccc(OCCCNC23CC4CC(CC(C4)C2)C3)c1C` [Example 2227, (S)-1-(4-((3′-(3-((3s,5s,7s)-adamantan-1-ylamino)propoxy)-2,2′-dimethyl-[1,1′-biphenyl]-3-yl)methoxy)-5-chloro-2-((5-cyanopyridin-3-yl)methoxy)benzyl)piperidine-2-carboxylic Acid] gave an IC50 of 0.21 to 10 nM.
